Some test systems named below: A549 NSCLC; NCI-H226 lung; MALME-3M melanoma; M14 melanoma; HCT-116 colon; UACC-257 melanoma; U251 CNS; T-47D breast; OVCAR-3 ovarian; EKVX NSCLC.
Holding throughout (assay): NCI anticancer screen, dose series, 48 h

Data on 12 compounds can be found in PubChem BioAssay (NCI).

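Interpolation was linear, between the two tested concentrations surrounding the appropriate level; five concentrations were tested over 48 hours in 96-well plates. At the GI50, growth is halved. TGI is the concentration that stops growth completely.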

`O=c1oc2cc(OS(=O)(=O)c3ccccc3)ccc2c2c1CCCCC2`: the GI50 was 4.78 µM with A549 NSCLC; above 100 µM in the assay with NCI-H226 lung; 29.4 µM with MALME-3M melanoma; 8.8 µM in the assay on M14 melanoma; 3.62 µM in the assay on HCT-116 colon; 7.31 µM in the assay on UACC-257 melanoma. Besides, the GI50 with U251 CNS is 4.51 µM; with T-47D breast, 3.79 µM. The TGI in the assay on A549 NSCLC, with NCI-H226 lung, in the assay on MALME-3M melanoma, with M14 melanoma, in the assay on HCT-116 colon and in the assay with UACC-257 melanoma was above 100 µM throughout. Further, the TGI with U251 CNS and in the assay on T-47D breast was above 100 µM throughout.

For `CCOC(=O)/C(C#N)=C(N)/C(=N\Nc1cccc(C(F)(F)F)c1)C(=O)OCC`, the TGI with A549 NSCLC, in the assay on OVCAR-3 ovarian, with EKVX NSCLC, with NCI-H226 lung, in the assay on MALME-3M melanoma and in the assay with M14 melanoma was above 100 µM in each case. In addition, the TGI with HCT-116 colon, in the assay on UACC-257 melanoma and in the assay with U251 CNS was above 100 µM throughout.

Consider `COC(=O)C12C3C4C1C1C2C3C41C(=O)N(C(C)C)C(C)C` (stereo not drawn), for which the TGI with A549 NSCLC, with OVCAR-3 ovarian, with EKVX NSCLC, with NCI-H226 lung, in the assay with MALME-3M melanoma and in the assay with M14 melanoma was above 100 µM each time. The TGI with HCT-116 colon, in the assay on UACC-257 melanoma and in the assay on U251 CNS was above 100 µM each time.

Turning to `Cc1cccc(O)c(=O)c1`, the TGI is above 100 µM in the assay with A549 NSCLC; above 100 µM with OVCAR-3 ovarian; 98.9 µM with EKVX NSCLC; 29.3 µM with NCI-H226 lung; above 100 µM in the assay with MALME-3M melanoma; above 100 µM in the assay with M14 melanoma. Further, the TGI in the assay on HCT-116 colon, in the assay on UACC-257 melanoma and with U251 CNS was above 100 µM in each case.

On to `CCCCN(CCCC)C(=O)C(=O)CC(=O)/C=C/c1ccccc1`, for which the TGI in the assay with A549 NSCLC, in the assay with OVCAR-3 ovarian, with EKVX NSCLC, in the assay on NCI-H226 lung, with MALME-3M melanoma and in the assay with M14 melanoma was above 100 µM each time. The TGI in the assay with HCT-116 colon, in the assay on UACC-257 melanoma and in the assay on U251 CNS was above 100 µM each time.

For `CCCCCCCCCCCCCCC(O)C1CCC(C(O)CCC(O)CCCCCC(O)CC2=CC(C)OC2=O)O1` (stereo not drawn), the TGI in the assay with A549 NSCLC is 13.2 µM; in the assay with OVCAR-3 ovarian, 4.76 µM; with EKVX NSCLC, 16.2 µM; in the assay on NCI-H226 lung it was 7.27 µM; with MALME-3M melanoma it was 13.6 µM; in the assay on M14 melanoma, 22.8 µM. In addition, the results for the TGI in the assay on HCT-116 colon, with UACC-257 melanoma and in the assay with U251 CNS were 11.1 µM, 2.94 µM and 20.9 µM, respectively.

Take `FC(F)(F)c1cc(NC2=NCCN=C(Nc3cc(C(F)(F)F)cc(C(F)(F)F)c3)SS2)cc(C(F)(F)F)c1`: the GI50 in the assay on A549 NSCLC is 3.68 µM; in the assay on OVCAR-3 ovarian, 2.94 µM; in the assay on NCI-H226 lung, 3.07 µM; in the assay with MALME-3M melanoma it was 4.12 µM; with M14 melanoma, 6.87 µM; with HCT-116 colon, 3.73 µM. The GI50 with U251 CNS was 2.82 µM; with T-47D breast it was 4.22 µM. Besides, the TGI came out at 17.4 µM in the assay with A549 NSCLC; 8.64 µM in the assay on OVCAR-3 ovarian; 16.2 µM in the assay on NCI-H226 lung; 15.5 µM with MALME-3M melanoma; 26.6 µM in the assay on M14 melanoma; 12.5 µM with HCT-116 colon. For the same compound, the TGI was 10.7 µM in the assay on U251 CNS and 23.7 µM in the assay with T-47D breast.

With `CC(=O)NS(=O)(=O)c1ccc(-n2nc(-c3ccccc3)cc2C2=CC(=O)C=CC2=O)cc1`, the GI50 in the assay with A549 NSCLC is above 100 µM; with OVCAR-3 ovarian it was above 100 µM; with EKVX NSCLC it was above 100 µM; in the assay with NCI-H226 lung it was above 100 µM; in the assay with M14 melanoma, above 100 µM; in the assay on HCT-116 colon, 33.5 µM. Moreover, the GI50 in the assay with UACC-257 melanoma, in the assay with U251 CNS and in the assay with T-47D breast was above 100 µM throughout. Further, the TGI in the assay on A549 NSCLC, in the assay on OVCAR-3 ovarian, with EKVX NSCLC, with NCI-H226 lung, with M14 melanoma and with HCT-116 colon was above 100 µM in each case. The TGI with UACC-257 melanoma, with U251 CNS and in the assay with T-47D breast was above 100 µM in each case.

As to `CCOC(=O)NC(=O)c1cn(C2OC(CO)C(O)C2O)c(=O)[nH]c1=O` (stereo not drawn), the TGI with A549 NSCLC, in the assay on OVCAR-3 ovarian, in the assay on EKVX NSCLC, in the assay on NCI-H226 lung, in the assay on MALME-3M melanoma and in the assay with M14 melanoma was above 100 µM throughout. In addition, the TGI in the assay with HCT-116 colon, with UACC-257 melanoma and in the assay on U251 CNS was above 100 µM throughout.

As for `COc1cc(C(=O)C/C(CCC(=O)Nc2ccc(Cl)cc2Cl)=N/Nc2nnc(C)n2N)ccc1O`, the TGI with A549 NSCLC, in the assay on OVCAR-3 ovarian, with EKVX NSCLC, in the assay with NCI-H226 lung, in the assay on MALME-3M melanoma and with M14 melanoma was above 100 µM in each case. The TGI with HCT-116 colon, in the assay on UACC-257 melanoma and in the assay on U251 CNS was above 100 µM throughout.

`COc1cc(CNC(=O)CCSc2nc3ccccc3c(=O)n2Cc2cc(OC)c(OC)c(OC)c2)cc(OC)c1OC`: the GI50 in the assay with A549 NSCLC was 6.33 µM; in the assay on OVCAR-3 ovarian, 4.23 µM; in the assay on NCI-H226 lung, 14.6 µM; in the assay on M14 melanoma, 2.23 µM; with HCT-116 colon, 3.76 µM; in the assay on UACC-257 melanoma it was 16.3 µM. Moreover, the GI50 in the assay with U251 CNS is 5.34 µM; in the assay with T-47D breast, 5.52 µM. In addition, the TGI in the assay on A549 NSCLC was above 100 µM; in the assay with OVCAR-3 ovarian, 18.2 µM; with NCI-H226 lung it was above 100 µM; in the assay on M14 melanoma, 5.8 µM; in the assay with HCT-116 colon, 13.3 µM; with UACC-257 melanoma it was above 100 µM. The values for the TGI in the assay with U251 CNS and in the assay with T-47D breast were 59.5 µM and 34 µM, respectively.

`O=c1cccccc1NCCNc1cccccc1=O`: the TGI in the assay with A549 NSCLC is above 100 µM; in the assay on OVCAR-3 ovarian, above 100 µM; in the assay on EKVX NSCLC, above 100 µM; in the assay with NCI-H226 lung, above 100 µM; with MALME-3M melanoma, 47.9 µM; in the assay on M14 melanoma, above 100 µM. The TGI with HCT-116 colon, with UACC-257 melanoma and in the assay on U251 CNS was above 100 µM throughout.
